The source of these data is patent US10517889B2, “Modulators of SMAD7 expression” (Ionis Pharmaceuticals, Inc., priority 2017, dated 2019).

Strand notation (5' to 3'): a small letter for the sugar, then the base; units joined by * are phosphorothioate-linked, units joined directly phosphodiester-linked; [ ] holds rarer units or linkages, { } end groups; capitals alone tell only the bases. k = constrained ethyl (cEt); [5mC] = 5-methylcytosine; d = 2'-deoxy (DNA)

For the data set, the system named is human SMAD7 mRNA. The data set can be described thus: Antisense inhibition of human SMAD7 mRNA expression in Hep3B cells by 3-10-3 cEt gapmers, 10,000 nM, electroporation (Example 2). The conditions noted are these: SMAD7 mRNA, Hep3B cells, 10,000 nM antisense oligonucleotide, electroporation, approximately 24 hours, primer probe set RTS5062, relative to untreated control cells. The data set is classed as cell-based. The essentials: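 Percent inhibition of SMAD7 mRNA, relative to untreated cells, after ~24 h exposure of electroporated Hep3B cells to 10,000 nM cEt gapmer; levels by qRT-PCR, corrected for total RNA.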
A word on the % Inhibition: it is the change of the read-out against control, counted positive when it falls. In the case of “829744 (antisense kA*k[5mC]*kG*dG*d[5mC]*dT*d[5mC]*d[5mC]*dT*d[5mC]*d[5mC]*dA*dG*kA*kG*kA) [compound 829744]”, the “% Inhibition” value is recorded as 39%. For “829745 (antisense k[5mC]*kG*kG*dG*d[5mC]*dG*d[5mC]*dA*d[5mC]*dG*dG*d[5mC]*dT*k[5mC]*k[5mC]*kT) [compound 829745]” the value was 19%.

Take “829746 (antisense k[5mC]*k[5mC]*kG*dG*dG*d[5mC]*dG*d[5mC]*dA*d[5mC]*dG*dG*d[5mC]*kT*k[5mC]*k[5mC]) [compound 829746]”: the “% Inhibition” value came out at 46%. With “829747 (antisense kT*k[5mC]*kG*d[5mC]*d[5mC]*dG*d[5mC]*d[5mC]*dG*dG*dG*d[5mC]*dG*k[5mC]*kA*k[5mC]) [compound 829747]”, the “% Inhibition” value is on record as 16%.

Turning to “829748 (antisense k[5mC]*kT*k[5mC]*dG*d[5mC]*d[5mC]*dG*d[5mC]*d[5mC]*dG*dG*dG*d[5mC]*kG*k[5mC]*kA) [compound 829748]”, the “% Inhibition” value stood at 43%. For “829749 (antisense kT*k[5mC]*k[5mC]*dT*d[5mC]*dG*d[5mC]*d[5mC]*dG*d[5mC]*d[5mC]*dG*dG*kG*k[5mC]*kG) [compound 829749]” the value was 26%; for “829750 (antisense k[5mC]*kG*kT*d[5mC]*d[5mC]*dT*d[5mC]*dG*d[5mC]*d[5mC]*dG*d[5mC]*d[5mC]*kG*kG*kG) [compound 829750]”, 33%. As for “829751 (antisense kG*k[5mC]*kA*dG*d[5mC]*dT*d[5mC]*dG*d[5mC]*d[5mC]*dT*d[5mC]*d[5mC]*kT*k[5mC]*k[5mC]) [compound 829751]”, the “% Inhibition” value is 40%. “829752 (antisense k[5mC]*k[5mC]*kG*d[5mC]*dA*dG*d[5mC]*dT*d[5mC]*dG*d[5mC]*d[5mC]*dT*k[5mC]*k[5mC]*kT) [compound 829752]”: the “% Inhibition” value is recorded as 27%. For “829753 (antisense kT*k[5mC]*k[5mC]*d[5mC]*d[5mC]*dG*d[5mC]*dA*dG*d[5mC]*dT*d[5mC]*dG*k[5mC]*k[5mC]*kT) [compound 829753]” the value was 29%; for “829754 (antisense kT*k[5mC]*kT*d[5mC]*d[5mC]*d[5mC]*d[5mC]*dG*d[5mC]*dA*dG*d[5mC]*dT*k[5mC]*kG*k[5mC]) [compound 829754]”, 49%; for “829755 (antisense kT*kT*k[5mC]*dT*d[5mC]*d[5mC]*d[5mC]*d[5mC]*dG*d[5mC]*dA*dG*d[5mC]*kT*k[5mC]*kG) [compound 829755]”, 52%. For “829756 (antisense k[5mC]*k[5mC]*kG*dT*d[5mC]*dG*d[5mC]*d[5mC]*d[5mC]*d[5mC]*dT*dT*d[5mC]*kT*k[5mC]*k[5mC]) [compound 829756]” the value was 42%; for “829757 (antisense k[5mC]*k[5mC]*kG*dG*d[5mC]*d[5mC]*d[5mC]*d[5mC]*dA*dT*dG*d[5mC]*dG*k[5mC]*kT*k[5mC]) [compound 829757]”, 15%; for “829758 (antisense k[5mC]*kA*k[5mC]*d[5mC]*dG*dG*d[5mC]*d[5mC]*d[5mC]*d[5mC]*dA*dT*dG*k[5mC]*kG*k[5mC]) [compound 829758]”, 24%.

“829759 (antisense k[5mC]*k[5mC]*kG*d[5mC]*d[5mC]*dA*d[5mC]*d[5mC]*dG*dG*d[5mC]*d[5mC]*d[5mC]*k[5mC]*kA*kT) [compound 829759]”: the “% Inhibition” value is listed as 51%. For “829760 (antisense k[5mC]*k[5mC]*kG*d[5mC]*d[5mC]*dT*dT*dG*d[5mC]*d[5mC]*d[5mC]*dA*dG*kG*k[5mC]*kA) [compound 829760]” the value was 3%; for “829761 (antisense kT*k[5mC]*kA*dG*dA*dT*d[5mC]*d[5mC]*dG*d[5mC]*d[5mC]*dT*d[5mC]*kG*kG*k[5mC]) [compound 829761]”, 21%. On to “829763 (antisense kG*kT*kT*dT*d[5mC]*dT*dT*dG*dA*dG*d[5mC]*dA*d[5mC]*k[5mC]*kG*kA) [compound 829763]”, for which the “% Inhibition” value is recorded as 65%. For “829764 (antisense k[5mC]*k[5mC]*kG*d[5mC]*dT*d[5mC]*d[5mC]*dT*dT*d[5mC]*dA*dG*dT*kT*kT*k[5mC]) [compound 829764]” the value was 44%. For “829765 (antisense kG*k[5mC]*k[5mC]*dG*d[5mC]*dT*d[5mC]*d[5mC]*dT*dT*d[5mC]*dA*dG*kT*kT*kT) [compound 829765]”, the “% Inhibition” value is reported as 28%. For “829766 (antisense k[5mC]*kT*kG*d[5mC]*d[5mC]*dG*d[5mC]*dT*d[5mC]*d[5mC]*dT*dT*d[5mC]*kA*kG*kT) [compound 829766]”, the “% Inhibition” value is on record as 32%.

Regarding “829768 (antisense kG*k[5mC]*kA*dG*dG*dA*dG*dG*d[5mC]*dA*d[5mC]*dG*d[5mC]*kG*kG*kT) [compound 829768]”, the “% Inhibition” value is recorded as 41%. For “829769 (antisense k[5mC]*kA*kG*d[5mC]*dA*dG*dG*dA*dG*dG*d[5mC]*dA*d[5mC]*kG*k[5mC]*kG) [compound 829769]” the value was 46%; for “829770 (antisense k[5mC]*kA*kG*dT*d[5mC]*d[5mC]*dA*dG*dG*d[5mC]*dG*dG*d[5mC]*k[5mC]*kG*kG) [compound 829770]”, 42%; for “829771 (antisense kG*k[5mC]*kA*dG*dT*d[5mC]*d[5mC]*dA*dG*dG*d[5mC]*dG*dG*k[5mC]*k[5mC]*kG) [compound 829771]”, 22%. Take “829772 (antisense kA*kG*kG*dA*d[5mC]*dG*dA*dG*dG*dG*d[5mC]*dG*dG*k[5mC]*kT*kG) [compound 829772]”: the “% Inhibition” value is recorded as 52%.

For the substance “829773 (antisense kG*kT*kA*dG*dG*dA*d[5mC]*dG*dA*dG*dG*dG*d[5mC]*kG*kG*k[5mC]) [compound 829773]”, the “% Inhibition” value turned out to be 50%. For “829774 (antisense kA*kG*kT*dA*dG*dG*dA*d[5mC]*dG*dA*dG*dG*dG*k[5mC]*kG*kG) [compound 829774]” the value was 22%. For “829775 (antisense k[5mC]*kG*kA*dG*dT*dA*dG*dG*dA*d[5mC]*dG*dA*dG*kG*kG*k[5mC]) [compound 829775]” the value was 59%; for “829777 (antisense kG*kA*kG*d[5mC]*dG*dA*dG*dT*dA*dG*dG*dA*d[5mC]*kG*kA*kG) [compound 829777]”, 37%; for “829778 (antisense kG*kG*kA*dG*d[5mC]*dG*dA*dG*dT*dA*dG*dG*dA*k[5mC]*kG*kA) [compound 829778]”, 46%. For “829779 (antisense kG*kG*kG*dA*dG*d[5mC]*dG*dA*dG*dT*dA*dG*dG*kA*k[5mC]*kG) [compound 829779]” the value was 58%; for “829780 (antisense k[5mC]*kG*kG*d[5mC]*d[5mC]*dA*d[5mC]*d[5mC]*dT*dG*dA*dA*d[5mC]*kA*k[5mC]*kT) [compound 829780]”, 37%; for “829781 (antisense k[5mC]*k[5mC]*kG*dG*d[5mC]*d[5mC]*dA*d[5mC]*d[5mC]*dT*dG*dA*dA*k[5mC]*kA*k[5mC]) [compound 829781]”, 31%.

As for “829782 (antisense kA*kT*k[5mC]*d[5mC]*dG*dG*d[5mC]*d[5mC]*dA*d[5mC]*d[5mC]*dT*dG*kA*kA*k[5mC]) [compound 829782]”, the “% Inhibition” value came out at 36%. For “829783 (antisense kG*kA*kT*d[5mC]*d[5mC]*dG*dG*d[5mC]*d[5mC]*dA*d[5mC]*d[5mC]*dT*kG*kA*kA) [compound 829783]” the value was 52%; for “829784 (antisense kA*kG*kA*dT*d[5mC]*d[5mC]*dG*dG*d[5mC]*d[5mC]*dA*d[5mC]*d[5mC]*kT*kG*kA) [compound 829784]”, 32%; for “829785 (antisense kA*kT*kG*d[5mC]*d[5mC]*dT*dG*dA*dG*dA*dT*d[5mC]*d[5mC]*kG*kG*k[5mC]) [compound 829785]”, 27%.

Regarding “829786 (antisense kG*kA*kA*dT*dG*d[5mC]*d[5mC]*dT*dG*dA*dG*dA*dT*k[5mC]*k[5mC]*kG) [compound 829786]”, the “% Inhibition” value is given as 56%. For “829787 (antisense kG*kG*kA*dA*dT*dG*d[5mC]*d[5mC]*dT*dG*dA*dG*dA*kT*k[5mC]*k[5mC]) [compound 829787]” the value was 30%. For “829788 (kT*k[5mC]*k[5mC]*dG*dA*dG*dG*dA*dA*dT*dG*d[5mC]*d[5mC]*kT*kG*kA; antisense) [compound 829788]” the value was 41%.

On to “829789 (kA*k[5mC]*kT*dT*d[5mC]*d[5mC]*dG*dA*dG*dG*dA*dA*dT*kG*k[5mC]*k[5mC]; antisense) [compound 829789]”, for which the “% Inhibition” value worked out at 42%. For “829790 (k[5mC]*k[5mC]*k[5mC]*dG*dT*dA*dA*dG*dA*dT*dT*d[5mC]*dA*k[5mC]*kA*kG; antisense) [compound 829790]”, the “% Inhibition” value amounted to 51%. For “829791 (kT*kT*k[5mC]*d[5mC]*d[5mC]*dG*dT*dA*dA*dG*dA*dT*dT*k[5mC]*kA*k[5mC]; antisense) [compound 829791]” the value was 38%. For “829792 (k[5mC]*kT*kT*d[5mC]*d[5mC]*d[5mC]*dG*dT*dA*dA*dG*dA*dT*kT*k[5mC]*kA; antisense) [compound 829792]” the value was 39%. For “829793 (kT*k[5mC]*kT*dT*d[5mC]*d[5mC]*d[5mC]*dG*dT*dA*dA*dG*dA*kT*kT*k[5mC]; antisense) [compound 829793]” the value was 41%; for “829794 (kG*kA*kT*d[5mC]*dT*dT*d[5mC]*d[5mC]*d[5mC]*dG*dT*dA*dA*kG*kA*kT; antisense) [compound 829794]”, 24%.
